Entries after “also recorded” stand apart in the source; their conditions may differ. Like-named read-outs stand apart in the source and are kept apart here.
Tests used:
[1] = tested on: A2780 (ovarian carcinoma); assay: MTT cytotoxicity assay, A2780; settings: read-out: EC50 A2780
Protocol: (§1) Human ovarian carcinoma cells A2780 and A2780cisR, and human breast adenocarcinoma MDA-MB-231 cells, murine hepatocytes TAMH and human cardiomyocytes AC10 were obtained from ATCC. […] The stock of cisplatin was commercially available clinical grade solution in saline buffer.
(§2) Inhibition of cell viability assay. The cytotoxicity of the compounds was determined by colorimetric MTT assay. The cells were harvested from culture flasks by trypsinization and seeded into Cellstar 96-well microculture plates at the seeding density of 6000 cells per well (6×10^4 cells/mL). TAMH and AC10 cells were seeded at 12000 and 5000 cells per well, respectively. After cells were allowed to resume exponential growth for 24 hours, they were exposed to drugs at different concentrations in media for 72 hours. The drugs were diluted in complete medium at the desired concentration and added to each well (100 μL) and serially diluted to other wells. After exposure for 72 hours, the media was replaced with MTT in media (5 mg/mL, 100 μL) and incubated for additional 45 minutes. Subsequently, the medium was aspirated and the purple formazan crystals formed in viable cells were dissolved in DMSO (100 μL). Optical densities were measured at 570 nm using the BioTek H1 Synergy microplate reader. […] Evaluation was based on means from at least three independent experiments, each comprising six replicates per concentration level.

[2] = tested on: MDA-MB-231 (breast adenocarcinoma)
Protocol: as §1, §2

MDA-MB-231 tumors = settings: 250 mg/kg; cited from earlier work
[3] = tested on: MDA-MB-231 (breast adenocarcinoma); assay: MTT cytotoxicity assay, MDA-MB-231; settings: for EC50: read-out: EC50 MDA-MB-231
Protocol: as §1, §2

[4] = tested on: A2780cisR (ovarian carcinoma); assay: MTT cytotoxicity assay, A2780cisR; settings: for EC50: read-out: EC50 A2780cisR; for RF (Resistance Factor): IC50 (A2780cisR)/IC50 (A2780)
Protocol: as §1, §2

MDA-MB-231 cells [5] = assay: Annexin V/PI apoptosis assay; settings: MDA-MB-231, 24 hours, equipotent concentrations
Protocol: Annexin V/PI apoptosis assay. MDA-MB-231 cells were seeded into Cellstar 12-well plates (Greiner Bio-One) at a density of 20×10^4 cells/well (1 mL per well). […] After the supernatant solution was collected in 1.5 mL microtubes, the cells were washed with 100 μl of trypsin, which was combined with the supernatant. Subsequently, cells were trypsinized with 200 μl trypsin for 5 minutes at 37° C., 5% CO2, washed with 200 μl of PBS and combined with the supernatant. The cells were centrifuged at 2.5×10^3 rpm for 5 minutes and the pellets were washed once with PBS and resuspended in 500 μl of Annexin V binding buffer and stained with Annexin V-FITC and PI reagents. The fluorescence was immediately analyzed by flow cytometry. The resulting dot blots were acquired from 10000 events and quantified using Flowjo software (Flowjo LLC, Ashland, Oreg., USA).
MDA-MB-231 cells were treated with the compounds of interest at equipotent concentrations, corresponding to their IC50 values (FIG. 57).

MDA-MB-231 cells [6] = assay: Cellular accumulation of Au by ICP-MS; settings: ICP-MS after 24 hour exposure at 1.4 μM
Protocol: Cellular accumulation of Au complexes was determined in MDA-MB-231 cells. Cells were seeded into Cellstar 6-well plates (Greiner Bio-one) at a density of 60×10^4 cells/well (2 mL per well). After the cells were allowed to resume exponential growth for 24 hours, they were exposed to compounds of interest at various concentrations for 24 hours at 37° C. The cells were washed twice with 1 mL of PBS and lysed with RIPA lysis buffer for 5-10 min at 4° C. The cell lysates were scraped from the wells and transferred to separate 1.5 mL microtubes. The supernatant was then collected after centrifugation (13000 rpm, 4° C. for 15 minutes) and total protein content of each sample was quantified via Bradford's assay. […] The resulting solution was diluted to 1 mL (2-4% v/v HNO3) with ultrapure Milli-Q water. Au content of each sample was quantified by ICP-MS. Re was used as an internal standard. […] Metal standards for calibration curve (0, 0.5, 1, 2, 5, 10, 20, 40 ppb) were freshly prepared before each measurement. All readings were made in triplicates in He mode.

[7] = tested on: AC10 (human ventricular cardiomyocytes); assay: MTT toxicity assay in cardiomyocytes AC10
Protocol: (§3) Cell lines and culture conditions. Human ovarian carcinoma cells A2780 and A2780cisR, and human breast adenocarcinoma MDA-MB-231 cells, murine hepatocytes TAMH and human cardiomyocytes AC10 were obtained from ATCC.
Inhibition of cell viability assay. The cytotoxicity of the compounds was determined by colorimetric MTT assay. The cells were harvested from culture flasks by trypsinization and seeded into Cellstar 96-well microculture plates at the seeding density of 6000 cells per well (6×10^4 cells/mL). TAMH and AC10 cells were seeded at 12000 and 5000 cells per well, respectively. After cells were allowed to resume exponential growth for 24 hours, they were exposed to drugs at different concentrations in media for 72 hours. The drugs were diluted in complete medium at the desired concentration and added to each well (100 μL) and serially diluted to other wells. After exposure for 72 hours, the media was replaced with MTT in media (5 mg/mL, 100 μL) and incubated for additional 45 minutes. Subsequently, the medium was aspirated and the purple formazan crystals formed in viable cells were dissolved in DMSO (100 μL). Optical densities were measured at 570 nm using the BioTek H1 Synergy microplate reader. […] Evaluation was based on means from at least three independent experiments, each comprising six replicates per concentration level. For experiments with inhibitors, MDA-MB-231 cells were seeded at the seeding density of 8000 cells per well (8×10^4 cells/mL).

rat liver TrxR = biological target: T1, rat liver TrxR (Rattus norvegicus, UniProt O89049); assay: Thioredoxin reductase inhibition, DTNB reduction assay
T1 sequence (O89049 1-499): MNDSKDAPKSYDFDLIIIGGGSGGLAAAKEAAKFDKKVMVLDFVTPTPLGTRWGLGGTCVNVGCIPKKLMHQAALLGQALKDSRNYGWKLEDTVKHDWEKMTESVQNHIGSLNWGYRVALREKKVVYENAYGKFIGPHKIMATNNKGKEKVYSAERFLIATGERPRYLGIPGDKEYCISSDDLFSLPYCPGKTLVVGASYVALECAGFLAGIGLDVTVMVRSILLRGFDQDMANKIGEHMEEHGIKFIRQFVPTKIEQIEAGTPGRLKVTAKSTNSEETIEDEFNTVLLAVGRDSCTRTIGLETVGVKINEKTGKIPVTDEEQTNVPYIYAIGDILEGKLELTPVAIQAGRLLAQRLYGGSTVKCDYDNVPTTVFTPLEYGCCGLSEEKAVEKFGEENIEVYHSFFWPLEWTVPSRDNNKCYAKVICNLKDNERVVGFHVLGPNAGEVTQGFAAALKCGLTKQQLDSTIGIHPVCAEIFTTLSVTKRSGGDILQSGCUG
Protocol: Thioredoxin reductase inhibition assay. Assay was performed according to the protocol provided by the manufacturer. […] Compounds of interest were serially diluted at the separate 96-well plate and 4 μl of each concentration was added to the appropriate wells. The reaction mixture was incubated with gentle shaking (room temperature, 30 minutes). Subsequently, 6 μl of DNTB (100 mM) was added and incubated for an additional 3 minutes.
Compounds of interest at six different concentrations were incubated with the isolated rat liver TrxR enzyme in the presence of NADPH for 30 minutes, followed by 2 minutes incubation with the DNTB reagent.

[8] = Stability in ammonium carbonate buffer by high resolution ESI-MS; settings: ammonium carbonate buffer pH 7.4, 37° C., 1, 3 and 24 hours
Protocol: NMR and mass spectrometric (MS) methods were employed to characterize the stability of Au complexes in DMSO and aqueous media. ^1H NMR stability studies were performed over the period of 6-10 days in d^6-DMSO and D2O (1met*).

[9] = Reactivity towards glutathione, ligand release (HR-MS, UV-vis); type: physicochemical; settings: with GSH; HR-MS and UV-vis
Text: NMR- and MS-based stability studies.
Intriguingly, the reactivity of Au^III-metformin complexes towards GSH was drastically different despite their similar structures.

[10] = tested on: AMPK-mTOR energy signaling pathway; settings: MDA-MB-231, 0.5×-2×EC50, 2, 6, 24 hours
Protocol: Western blotting. MDA-MB-231 cells were seeded into Cellstar 6-well plates (Greiner Bio-One) at a density of 60×10^4 cells/well (2 mL per well). After the cells were allowed to resume exponential growth for 24 hours, they were exposed to compounds of interest at various concentrations for 2, 6 and 24 hours. The cells were washed twice with PBS and lysed with RIPA buffer (50-100 μL) and kept for 5-10 minutes at 4° C. The samples were sonicated in ice bath (3 times for 30 seconds). […] Equal quantities of protein (50 μg) were reconstituted in loading buffer (5× Laemmli Buffer with 5% DTT) and heated at 100° C. for 10 minutes. […] The protein bands were visualised with Ponceau S stain solution and the nitrocellulose membranes were cut into strips based on the protein ladder. The membranes were washed with a TBS-T wash buffer (0.1% Tween-20 in 1×PBS) 3 times for 5 minutes. Subsequently, they were blocked in 5% BSA (w/v) in wash buffer for 1 hour and incubated with the appropriate primary antibodies in 5% BSA (w/v) in wash buffer at 4° C. overnight. The membranes were washed with a wash buffer 3 times for 7 minutes. […] Immune complexes were detected with Luminata HRP substrates and analysed using enhanced chemiluminescence imaging. […]

[11] = tested on: TAMH (transforming growth factor-a transgenic mouse hepatocytes); assay: MTT toxicity assay in hepatocytes TAMH; settings: read-out: EC50 TAMH, exposure time 72 hours
Protocol: as §3
Inhibition of cell viability assay. The cytotoxicity of the compounds was determined by colorimetric MTT assay. The cells were harvested from culture flasks by trypsinization and seeded into Cellstar 96-well microculture plates at the seeding density of 6000 cells per well (6×10^4 cells/mL). TAMH and AC10 cells were seeded at 12000 and 5000 cells per well, respectively. After cells were allowed to resume exponential growth for 24 hours, they were exposed to drugs at different concentrations in media for 72 hours. The drugs were diluted in complete medium at the desired concentration and added to each well (100 μL) and serially diluted to other wells. After exposure for 72 hours, the media was replaced with MTT in media (5 mg/mL, 100 μL) and incubated for additional 45 minutes. Subsequently, the medium was aspirated and the purple formazan crystals formed in viable cells were dissolved in DMSO (100 μL). Optical densities were measured at 570 nm using the BioTek H1 Synergy microplate reader. […] Evaluation was based on means from at least three independent experiments, each comprising six replicates per concentration level. […]

[12] = MTT assay, exposure time 72 hours

Protocol for Cyclic voltammetry: Cyclic voltammetry and spectroelectrochemistry. Cyclic voltammetry experiments with approximately 0.5 mM solutions of investigated gold complexes in 0.1 M nBu4NPF6 supporting electrolyte in dimethylsulphoxide (DMSO) or in pH 7 buffered solutions were performed under argon atmosphere using a three-electrode arrangement with glassy carbon 1 mm disc working electrode (from lonode, Australia), platinum wire as counter electrode, and silver wire as pseudo-reference electrode. Ferrocene (Fc) served as the internal potential standard for DMSO and potassium hexacyanoferrate(II) for aqueous solutions. […] The cell was positioned in the CUV-UV Cuvette Holder (Ocean Optics) connected to the diode-array UV-vis-NIR spectrometer by optical fibres. UV-vis-NIR spectra were processed using the AvaSoft 7.7 software package. Halogen and deuterium lamps were used as light sources (Avantes, Model AvaLight-DH-S-BAL).

Which EC50 ([1]; Homo sapiens, A2780, 72 h) does the source give for `CN(C)C(=N)N=C(N)N` [Metformin] here?
The EC50 was over 1000 µM.

What about the cytotoxicity in words [2] of the same compound?
Its cytotoxicity in words is “devoid of cytotoxicity”.

And the “anticancer effects in an MDA-MB-231 mammary fat model” value (MDA-MB-231 tumors)?
The value was “negligible”.

What about the EC50 ([3]; Homo sapiens, MDA-MB-231, 72 h) of the same compound?
Its EC50 is over 1000 µM.

What about the EC50 ([4]; Homo sapiens, A2780cisR, 72 h) of the same compound?
Its EC50 is over 1000 µM.

And the “redox activity in words” value (Cyclic voltammetry)?
Its value is “did not show any redox activity”.

What about the apoptotic cell population (MDA-MB-231 cells [5]) of the same compound?
The apoptotic cell population was “markedly lower”.

With `[Cl][Au-]1([Cl])[c]2ccccc2-c2cccc[n+]21` [Compound 1, (2-phenylpyridine)AuCl2] as the compound, how does the EC50 [1, 12] read?
Its EC50 is 2 ± 0.4 µM.

And the “Cellular accumulation MDA-MB-231” value (MDA-MB-231 cells [6])?
Its value is 0.36 ± 0.10 nmol Au/mg protein.

What about the EC50 [3, 12] of the same compound?
Its EC50 is 7.8 ± 1.7 µM.

What about the “RF (Resistance Factor)” value [4] of the same compound?
Its value is 2.

What about the EC50 [4, 12] of the same compound?
The EC50 was 4 ± 0.8 µM.

What about the apoptotic cell population (MDA-MB-231 cells [5]) of the same compound?
Its apoptotic cell population is “significantly higher”.

With `COc1cccc2c1C(=O)c1c(O)c3c(c(O)c1C2=O)C[C@@](O)(C(=O)CO)C[C@@H]3O[C@H]1C[C@H](N)[C@H](O)[C@H](C)O1` [doxorubicin] as the compound, how does the IC50 ([7]; read-out: IC50 value in AC10 cells (heart toxicity)) read?
Its IC50 is 2.3 ± 0.2 µM.

With `NC1=NC(NCCc2ccccc2)=[NH+][Au-]2([NH]1)[c]1ccccc1-c1cccc[n+]12` (centres unmarked) [Compound 1phen] as the compound, how does the IC50 (rat liver TrxR) read?
The IC50 was 0.0031 ± 0.0015 µM.

And the cytotoxicity in words ([3]; tested cancer cell lines, MTT 72 h)?
Its cytotoxicity in words is “least cytotoxic representative of this series”.

And the “stability, detection of molecular ion [M]+” value [8]?
Its value is “not detected after 1 hour incubation”.

What about the “reactivity towards GSH / ligand release in words” value [9] of the same compound?
The value was “release of phenformin was detected; also recorded: Only the peak at m/z 206.1622, which corresponds to free phenformin, was observed”.

And the apoptotic cell population (MDA-MB-231 cells [5])?
The apoptotic cell population was “no changes in apoptotic population”.

With “[Au^III(2-phenylpyridine)(metformin)]PF6 [Compound 1met]” as the compound, how does the “AMPK and mTOR phosphorylation” value [10] read?
Its value is “dose-dependent increase of AMPK phosphorylation and decrease of mTOR phosphorylation”.

With `[Cl][Au-]1([Cl])[c]2ccccc2Cc2cccc[n+]21` [Compound 2, (2-benzylpyridine)Au^IIICl2] as the compound, how does the EC50 [1, 12] read?
Its EC50 is 6.5 ± 0.8 µM.

And the “Cellular accumulation MDA-MB-231” value (MDA-MB-231 cells [6])?
The value was 0.14 ± 0.03 nmol Au/mg protein.

What about the EC50 [3, 12] of the same compound?
Its EC50 is 7.1 ± 0.4 µM.

And the “RF (Resistance Factor)” value [4]?
The value was 1.

And the EC50 [4, 12]?
The EC50 was 7.2 ± 1.5 µM.

With `[H]/N=C(/N)N/C(=N/[H])NCCc1ccccc1` [Phenformin] as the compound, how does the EC50 ([1]; Homo sapiens, A2780, 72 h) read?
The EC50 was 104 ± 21 µM.

And the EC50 ([3]; Homo sapiens, MDA-MB-231, 72 h)?
Its EC50 is 608 ± 23 µM.

And the EC50 ([4]; Homo sapiens, A2780cisR, 72 h)?
Its EC50 is 246 ± 24 µM.

Which IC50 (rat liver TrxR) does the source give for `CN(C)C1=[NH+][Au-]2([NH]C(N)=N1)[c]1ccccc1-c1cccc[n+]12` (centres unmarked) [1met*] here?
Its IC50 is 0.0012 ± 0.0005 µM.

Which IC50 (rat liver TrxR) does the source give for `CN(C)C1=[NH+][Au-]2([NH]C(N)=N1)[c]1ccccc1Cc1cccc[n+]12` (centres unmarked) [Compound 2met] here?
Its IC50 is 0.00055 ± 9e-05 µM.

What about the “stability, detection of molecular ion [M]+” value [8] of the same compound?
The value was “stable for 24 hours”.

What about the “reactivity towards GSH / ligand release in words” value [9] of the same compound?
The value was “stable both in the absence and presence of GSH; also recorded: did not significantly change over time”.

Which EC50 [1, 12] does the source give for `N.N.[Cl][Pt][Cl]` [Cisplatin] here?
Its EC50 is 0.6 ± 0.05 µM.

What about the EC50 [11] of the same compound?
The EC50 was 52 ± 7 µM.

What about the EC50 [3, 12] of the same compound?
The EC50 was 27 ± 8 µM.

And the “RF (Resistance Factor)” value [4]?
Its value is 18.

What about the EC50 [4, 12] of the same compound?
The EC50 was 11 ± 2 µM.

What about the apoptotic cell population (MDA-MB-231 cells [5]) of the same compound?
Its apoptotic cell population is “markedly lower”.

And the EC50 ([7]; read-out: EC50 AC10, MTT assay, exposure time 72 hours)?
Its EC50 is 10 ± 2 µM.

Which EC50 [1, 12] does the source give for `O=C1c2cccc[c]2[Au-]([Cl])([Cl])[n+]2ccccc21` [Compound 3, (2-benzoylpyridine)Au^IIICl2] here?
Its EC50 is 8.6 ± 1.7 µM.

What about the “Cellular accumulation MDA-MB-231” value (MDA-MB-231 cells [6]) of the same compound?
Its value is 0.14 ± 0.05 nmol Au/mg protein.

What about the EC50 [3, 12] of the same compound?
Its EC50 is 19 ± 3 µM.

And the “RF (Resistance Factor)” value [4]?
The value was 1.

What about the EC50 [4, 12] of the same compound?
The EC50 was 9.1 ± 2.9 µM.

— patent publication US20230106519A1, “GOLD(III)-BIGUANIDE PRODRUGS, METHODS OF PREPARATION AND USES THEREOF” (National University of Singapore, priority 2020, published 2023)
